In patent US11332461B2, “2-(1H-pyrazol-3-yl) phenol compound and use thereof” (BEIJING JIALIN PHARMACEUTICAL INC., priority 2017, dated 2022):
pEC50, pKi: −log10 of the molar value.

Assays:
[1] = system: H1299 cells (BRG1−/BRM+ cell line); assay: Cell viability test, tetrazolium salt (MTT) method; assay type: cell-based; conditions: Homo sapiens, NCI-H1299, cultured 3-4 days with compound, OD 490 nm
From the text: A tetrazolium salt (MTT) method is used for determining the pharmacodynamics activity of the compounds of the present invention by using H1299 cells as the cell line, wherein the cell line has deletion of the BRG1 gene (BRG1−), and has no deletion of the BRM gene (BRM+). That is, the cells of the cell line cannot express a BRG1 protein, but can normally express a BRM protein. Small molecules that could prevent the BRM protein from interacting with the chromosomes in the cells, could prevent the BRM protein from exerting functions in the cells. According to the law of synergistic lethality, in a BRG1-gene-deleted cell, if the function of the BRM protein is blocked, cell death will be caused, thereby achieving the function that the small molecules kill cancer cells.
The specific steps of the test are as follows: • (1) different experimental cell lines are subcultured into a 96-well plate, and to prevent a marginal effect, the peripheries of the 96-well plate are added with 100 μL of PBS as a blank, wherein the cell line as used is H1299 cells (BRG1−/BRM+cell line); • (2) when the cells are in adherent growth to be 40-50%, different concentrations of drug molecules and DMSO as controls are added, the cells treated with the small molecules continue to be cultured for 3-4 days, and the medium is replaced by a medium supplemented with small molecules during the culture; • (3) after the 96-well plate treated with DMSO in the control group is full of the cells, each well is added with 20 μL of a MTT mother liquor (5 mg/mL); • (4) the cell plate is placed back into a […] incubator of 37° C. and continue to be incubated for 4 hours; • (5) the MTT solution is pipetted off, and each well is added with 150 μL DMSO; • (6) the 96-well plate is placed in a shaker at room temperature with protection from light for 15 min, until purple crystals are completely dissolved. • (7) The absorbance (OD) of each well is determined by a SpectraMax M5 multi-well plate reader (Molecular Devices, USA) at a wavelength of 490 nm.
According to a conventional detection method, the EC50 values of respective compounds (small molecules) are determined, and the results are summarized in Table 1.

[2] = molecular target: BRM protein (Homo sapiens, UniProt P51531); assay: Ki of compounds (Table 1; no method described); assay type: binding
Chain of BRM protein (P51531 whole entry): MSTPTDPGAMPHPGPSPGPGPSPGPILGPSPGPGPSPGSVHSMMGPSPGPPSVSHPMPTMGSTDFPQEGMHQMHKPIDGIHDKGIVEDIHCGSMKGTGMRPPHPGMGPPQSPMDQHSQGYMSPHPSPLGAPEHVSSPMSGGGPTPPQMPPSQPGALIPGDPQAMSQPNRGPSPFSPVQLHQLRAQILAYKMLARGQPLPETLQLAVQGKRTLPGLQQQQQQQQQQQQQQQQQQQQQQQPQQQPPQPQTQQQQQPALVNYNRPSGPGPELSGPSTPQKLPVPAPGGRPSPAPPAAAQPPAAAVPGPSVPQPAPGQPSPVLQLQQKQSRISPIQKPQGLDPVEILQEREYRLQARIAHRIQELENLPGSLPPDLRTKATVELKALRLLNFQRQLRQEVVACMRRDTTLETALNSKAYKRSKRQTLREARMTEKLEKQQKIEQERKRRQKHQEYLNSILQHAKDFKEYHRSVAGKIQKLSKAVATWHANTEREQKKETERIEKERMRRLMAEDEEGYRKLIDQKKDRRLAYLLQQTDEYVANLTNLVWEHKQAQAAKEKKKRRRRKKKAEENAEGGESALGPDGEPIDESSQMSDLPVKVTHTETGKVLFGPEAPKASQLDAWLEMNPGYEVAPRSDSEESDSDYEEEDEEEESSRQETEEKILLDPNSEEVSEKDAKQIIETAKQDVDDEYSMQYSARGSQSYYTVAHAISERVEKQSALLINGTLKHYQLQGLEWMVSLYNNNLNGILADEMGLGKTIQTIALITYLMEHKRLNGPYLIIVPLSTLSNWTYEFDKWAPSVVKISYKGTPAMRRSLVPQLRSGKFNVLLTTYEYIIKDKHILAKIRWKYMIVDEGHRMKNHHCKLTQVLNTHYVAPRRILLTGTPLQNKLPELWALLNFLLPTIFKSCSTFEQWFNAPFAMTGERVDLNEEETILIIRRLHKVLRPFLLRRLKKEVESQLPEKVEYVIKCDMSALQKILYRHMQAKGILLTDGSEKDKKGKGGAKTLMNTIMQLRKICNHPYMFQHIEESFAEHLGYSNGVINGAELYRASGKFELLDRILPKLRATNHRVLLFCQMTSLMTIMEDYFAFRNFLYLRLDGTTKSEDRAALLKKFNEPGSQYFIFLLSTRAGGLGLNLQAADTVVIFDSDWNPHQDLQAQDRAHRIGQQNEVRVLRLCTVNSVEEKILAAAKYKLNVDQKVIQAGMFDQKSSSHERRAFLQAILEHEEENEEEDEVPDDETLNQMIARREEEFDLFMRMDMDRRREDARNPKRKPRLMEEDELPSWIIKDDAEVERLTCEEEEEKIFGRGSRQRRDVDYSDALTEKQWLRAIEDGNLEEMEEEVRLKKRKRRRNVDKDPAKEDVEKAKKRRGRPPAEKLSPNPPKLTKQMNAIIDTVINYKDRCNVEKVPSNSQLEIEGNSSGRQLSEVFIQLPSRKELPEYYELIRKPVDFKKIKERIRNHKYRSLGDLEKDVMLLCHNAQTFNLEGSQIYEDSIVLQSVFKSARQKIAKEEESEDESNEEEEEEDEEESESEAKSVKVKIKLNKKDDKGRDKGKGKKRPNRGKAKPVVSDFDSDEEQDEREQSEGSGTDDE

How did the pEC50 [1] turn out when `O=C(Nc1cc(-c2cc(F)ccc2O)n[nH]1)c1ccccc1` [BRM2-162] was run?
The pEC50 was under 4.70.

And the pKi [2]?
The pKi was 5.17.

With `CN(Cc1ccccc1)C(=O)c1cc(-c2cc(F)ccc2O)n[nH]1` [BRM2-143] as the compound, how does the pEC50 [1] read?
Its pEC50 is 4.76.

And the pKi [2]?
The pKi was 5.55.

What does the source list for `O=C(NCCc1ccc(O)cc1)c1cc(-c2cc(F)ccc2O)n[nH]1` [BRM2-137]?
pEC50 [1]: < 4.70; pKi [2]: 5.96

Which results are given for `Nc1cccc(O)c1-c1cc(-c2ccc(Br)cc2)[nH]n1` [BRM2-6]?
pEC50 [1]: 4.92; pKi [2]: 5.64

What does the source list for `O=C(Nc1ccc(-c2cc(-c3cc(F)ccc3O)n[nH]2)cc1)c1ccccn1` [BRM2-112]?
pEC50 [1]: 5.19; pKi [2]: 6.05

With `O=C(Nc1ccc(-c2cc(-c3cc(F)ccc3O)n[nH]2)cc1)c1cccc(F)c1F` [BRM2-114] as the compound, how does the pEC50 [1] read?
Its pEC50 is 4.94.

What about the pKi [2] of the same compound?
The pKi was 5.52.

How did the pEC50 [1] turn out when `COC(=O)C(Cc1cnc[nH]1)NC(=O)c1cc(-c2cc(F)ccc2O)n[nH]1` (stereo not shown) [BRM2-152] was run?
Its pEC50 is 5.60.

What about the pKi [2] of the same compound?
Its pKi is 6.30.

What does the source list for `CN1CCN(c2ccc(-c3cc(-c4cc(F)ccc4O)n[nH]3)cc2)CC1` [BRM2-32]?
pEC50 [1]: 5.24; pKi [2]: 5.43

`CN1CCN(c2cccc(-c3cc(-c4cc(F)ccc4O)n[nH]3)c2)CC1` [BRM2-39] was tested. Which pEC50 [1] did it give?
Its pEC50 is 5.03.

What about the pKi [2] of the same compound?
Its pKi is 5.74.

Which results are given for `NC(=O)CCC(NC(=O)c1cc(-c2cc(F)ccc2O)n[nH]1)C(=O)N1CCOCC1` (stereo not shown) [BRM2-156]?
pEC50 [1]: 5.77; pKi [2]: 6.40

With `Cc1ccccc1-c1cc(-c2cc(F)ccc2O)n[nH]1` [BRM2-11] as the compound, how does the pEC50 [1] read?
Its pEC50 is under 4.70.

What about the pKi [2] of the same compound?
The pKi was 5.80.

Which results are given for `COc1cccc(C(=O)Nc2ccc(-c3cc(-c4cc(F)ccc4O)n[nH]3)cc2)c1OC` [BRM2-113]?
pEC50 [1]: < 4.70; pKi [2]: 5.70

How did the pEC50 [1] turn out when `O=C(Nc1cc(-c2cc(F)ccc2O)n[nH]1)c1ccc(O)cc1` [BRM2-163] was run?
Its pEC50 is 4.76.

What about the pKi [2] of the same compound?
The pKi was 5.36.

`Cc1ccc(C(=O)Nc2ccc(-c3cc(-c4cc(F)ccc4O)n[nH]3)cc2)cn1` [BRM2-111] was tested. Which pEC50 [1] did it give?
The pEC50 was 5.42.

What about the pKi [2] of the same compound?
The pKi was 6.10.

With `O=C(NCc1ccc(O)cc1)c1cc(-c2cc(F)ccc2O)n[nH]1` [BRM2-138] as the compound, how does the pEC50 [1] read?
The pEC50 was under 4.70.

What about the pKi [2] of the same compound?
Its pKi is 5.70.

`CN1CCCN(c2ccc(-c3cc(-c4cc(F)ccc4O)n[nH]3)cc2)CC1` [BRM2-31] was tested. Which pEC50 [1] did it give?
The pEC50 was 5.77.

And the pKi [2]?
The pKi was 6.05.

How did the pEC50 [1] turn out when `O=C(NCCc1ccc(Cl)cc1)c1cc(-c2cc(F)ccc2O)n[nH]1` [BRM2-140] was run?
Its pEC50 is 4.83.

What about the pKi [2] of the same compound?
Its pKi is 5.70.

Which results are given for `COC(=O)C1CCCN1C(=O)c1cc(-c2cc(F)ccc2O)n[nH]1` (stereo not shown) [BRM2-150]?
pEC50 [1]: 4.99; pKi [2]: 5.74

What does the source list for `CC(C)(C)c1ccc(-c2cc(-c3cc(F)ccc3O)n[nH]2)cc1` [BRM2-8]?
pEC50 [1]: 5.07; pKi [2]: 5.66

What does the source list for `Oc1ccc(F)cc1-c1cc(N2CC3CC2CN3c2ccccn2)[nH]n1` (stereo not shown) [BRM2-41]?
pEC50 [1]: 4.87; pKi [2]: 5.57

What does the source list for `Nc1c(F)ccc(O)c1-c1cc(-c2ccc(-c3ccc(F)cc3)cc2)[nH]n1` [BRM2-22]?
pEC50 [1]: 5.48; pKi [2]: 5.82

Which results are given for `O=C(Nc1cc(-c2cc(F)ccc2O)n[nH]1)c1cnccn1` [BRM2-166]?
pEC50 [1]: 5.14; pKi [2]: 5.77

With `Oc1ccc(F)cc1-c1cc(-c2ccc(N3CCCCC3)cc2)[nH]n1` [BRM2-33] as the compound, how does the pEC50 [1] read?
The pEC50 was 4.82.

What about the pKi [2] of the same compound?
The pKi was 5.57.

What does the source list for `Nc1c(F)ccc(O)c1-c1cc(-c2ccc(Br)cc2)[nH]n1` [BRM2-4]?
pEC50 [1]: 5.17; pKi [2]: 5.74

`CS(=O)(=O)c1ccc(-c2ccc(-c3cc(-c4cc(F)ccc4O)n[nH]3)cc2)cc1` [BRM2-30] was tested. Which pEC50 [1] did it give?
Its pEC50 is 4.98.

What about the pKi [2] of the same compound?
Its pKi is 5.70.

`CC(C)N(Cc1ccccc1)C(=O)c1cc(-c2cc(F)ccc2O)n[nH]1` [BRM2-145] was tested. Which pEC50 [1] did it give?
The pEC50 was under 4.70.

What about the pKi [2] of the same compound?
The pKi was 5.28.

With `Cc1cccc(C)c1-c1ccc(-c2cc(-c3cc(F)ccc3O)n[nH]2)cc1` [BRM2-27] as the compound, how does the pEC50 [1] read?
Its pEC50 is under 4.70.

And the pKi [2]?
The pKi was 5.57.

How did the pEC50 [1] turn out when `O=C(NCc1ccc(F)cc1)c1cc(-c2cc(F)ccc2O)n[nH]1` [BRM2-136] was run?
The pEC50 was 4.74.

What about the pKi [2] of the same compound?
Its pKi is 5.52.

How did the pEC50 [1] turn out when `COC(=O)C(CCS(C)(=O)=O)NC(=O)c1cc(-c2cc(F)ccc2O)n[nH]1` (stereo not shown) [BRM2-149] was run?
The pEC50 was 5.05.

What about the pKi [2] of the same compound?
Its pKi is 5.92.

`O=C(Nc1ccc(-c2cc(-c3cc(F)ccc3O)n[nH]2)cc1)c1c(F)cccc1F` [BRM2-105] was tested. Which pEC50 [1] did it give?
Its pEC50 is under 4.70.

And the pKi [2]?
Its pKi is 5.39.

`O=C(NCCc1ccc(F)cc1)c1cc(-c2cc(F)ccc2O)n[nH]1` [BRM2-157] was tested. Which pEC50 [1] did it give?
Its pEC50 is 5.37.

And the pKi [2]?
Its pKi is 6.10.

With `CN1CCN(c2ccccc2-c2cc(-c3cc(F)ccc3O)n[nH]2)CC1` [BRM2-34] as the compound, how does the pEC50 [1] read?
Its pEC50 is 5.12.

What about the pKi [2] of the same compound?
The pKi was 5.85.

With `CCN(Cc1ccccc1)C(=O)c1cc(-c2cc(F)ccc2O)n[nH]1` [BRM2-144] as the compound, how does the pEC50 [1] read?
The pEC50 was under 4.70.

What about the pKi [2] of the same compound?
The pKi was 5.34.

What does the source list for `O=C(Nc1ccc(-c2cc(-c3cc(F)ccc3O)n[nH]2)cc1)c1cnccn1` [BRM2-124]?
pEC50 [1]: 5.82; pKi [2]: 6.22

With `O=C(Cc1ccc(F)cc1)Nc1cc(-c2cc(F)ccc2O)n[nH]1` [BRM2-168] as the compound, how does the pEC50 [1] read?
Its pEC50 is 4.87.

What about the pKi [2] of the same compound?
Its pKi is 5.60.

With `Nc1cc(-c2cc(F)ccc2O)n[nH]1` [BRM2-160] as the compound, how does the pEC50 [1] read?
Its pEC50 is 4.74.

What about the pKi [2] of the same compound?
Its pKi is 5.49.

Which results are given for `O=C(Nc1ccc(-c2cc(-c3cc(F)ccc3O)n[nH]2)cc1)c1ccnc(Cl)c1` [BRM2-123]?
pEC50 [1]: 5.55; pKi [2]: 6.15

With `O=C(Nc1ccc(-c2cc(-c3cc(F)ccc3O)n[nH]2)cc1)C12CC3CC(CC(C3)C1)C2` [BRM2-106] as the compound, how does the pEC50 [1] read?
Its pEC50 is 6.05.

What about the pKi [2] of the same compound?
The pKi was 6.70.

How did the pEC50 [1] turn out when `CCc1ccc(-c2cc(-c3cc(F)ccc3O)n[nH]2)cc1` [BRM2-9] was run?
Its pEC50 is under 4.70.

And the pKi [2]?
The pKi was 5.34.

How did the pEC50 [1] turn out when `O=C(Nc1ccc(-c2cc(-c3cc(F)ccc3O)n[nH]2)cc1)c1cccnc1` [BRM2-121] was run?
The pEC50 was 5.62.

And the pKi [2]?
The pKi was 6.22.

Which results are given for `O=C(Cc1ccc(O)cc1)Nc1cc(-c2cc(F)ccc2O)n[nH]1` [BRM2-164]?
pEC50 [1]: < 4.70; pKi [2]: 5.16
